Laboratory results from patent publication US20260001928A1 (CORTERIA PHARMACEUTICALS, priority 2022, published 2026).
*1 amine or outer side, *2 acyl side, *3 side chain or, on linkers, in order; H or OH if unused. Where a SMILES comes first, the peptide text is derived from it. Side-chain parts run from the residue outwards. [ ]: non-standard residue; d: D form. The star is where a group is joined. C18 diacid = O=C(O)CCCCCCCCCCCCCCCCC(=O)*; C16 diacid = O=C(O)CCCCCCCCCCCCCCC(=O)*; γGlu = O=C(O)[C@H](CCC(=O)[*:2])N[*:1]; NMeI = CC[C@H](C)[C@H](NC)C(=O)O; AEEA = NCCOCCOCC(=O)O; Aib = CC(C)(N)C(=O)O

Biological target: T1, CFR1R receptor (Homo sapiens, UniProt P34998)
T1 construct: host or cells: CHO-K1 (clone 2)
T1 sequence (P34998 24-415): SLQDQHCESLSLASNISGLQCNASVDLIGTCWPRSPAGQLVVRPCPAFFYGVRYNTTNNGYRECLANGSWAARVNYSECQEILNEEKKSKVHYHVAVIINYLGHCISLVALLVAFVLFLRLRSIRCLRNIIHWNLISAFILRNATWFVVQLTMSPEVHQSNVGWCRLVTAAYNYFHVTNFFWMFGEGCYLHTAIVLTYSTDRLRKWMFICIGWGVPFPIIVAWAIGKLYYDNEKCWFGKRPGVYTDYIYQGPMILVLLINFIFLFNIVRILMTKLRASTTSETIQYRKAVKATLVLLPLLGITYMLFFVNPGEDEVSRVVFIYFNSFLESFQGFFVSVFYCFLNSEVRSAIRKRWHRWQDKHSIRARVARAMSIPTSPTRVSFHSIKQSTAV
Experiment: Activity at anti-target CFR1R receptor, cAMP assay in CRF1R-overexpression CHO-K1 cells
Format: cell-based
Conditions: 100% = Sauvagine at 100 nM
Protocol: Assessment of activity at anti-target CFR1R receptor is done using the same procedure as the one described for the TeloHEAC cell line. The CRF1R-overexpression CHO-K1 cell line clone 2 was purchased from PerkinElmer. Cells were grown in a 10 cm dish at 37° C./5% CO2 in medium (F12 (Hams)/10% FBS/400 μg/ml G418) to near confluence. At that stage, cells were harvested, resuspended to 10 million/mL in culture medium without G418 and with 10% DMSO. 1 mL vial aliquots were slowly frozen to −80° C. in isopropanol and then transferred in liquid nitrogen for storage. These vials were used to run the experiment following the procedure reported in the previous paragraph, except for the compound used in the control well to define the 100% activation (Sauvagine at 100 nM) and the cell density (final cell density: 4000 cells/well)

| Emax (% I) | SMILES | also measured |
| --- | --- | --- |
| 4 % I | CC[C@H](C)[C@H](NC(C)=O)C(=O)N[C@H](C(=O)N[C@@H](CC(C)C)C(=O)N[C@@H](CO)C(=O)N[C@@H](CC(C)C)C(=O)N[C@@H](CC(=O)O)C(=O)N[C@@H](C(=O)N1CCC[C@H]1C(=O)N[C@H](C(=O)N[C@@H](CCCCN)C(=O)N[C@@H](CC(C)C)C(=O)N[C@@H](CCCCNC(=O)CC[C@H](NC(=O)CCCCCCCCCCCCCCC(=O)O)C(=O)O)C(=O)N[C@@H](CCC(N)=O)C(=O)N[C@H](C(=O)N[C@@H](CC(C)C)C(=O)N[C@@H](CC(C)C)C(=O)N[C@@H](CCCCN)C(=O)N[C@@H](CCC(N)=O)C(=O)N[C@@H](CCC(=O)O)C(=O)N[C@@H](CCCNC(=N)N)C(=O)N[C@@H](CCC(N)=O)C(=O)N[C@@H](CCCCN)C(=O)N[C@@H](CCCCN)C(=O)N[C@@H](CCC(N)=O)C(=O)N[C@@H](CCCNC(=N)N)C(=O)N[C@@H](CCC(=O)O)C(=O)N[C@@H](CCC(N)=O)C(=O)N[C@@H](C)C(=O)N[C@@H](CCC(=O)O)C(=O)N[C@@H](CCCCN)C(=O)N[C@@H](CC(N)=O)C(=O)N[C@@H](CCCCN)C(=O)N[C@@H](CCC(N)=O)C(=O)N[C@H](C(=O)N[C@@H](CC(C)C)C(=O)N[C@@H](CCC(=O)O)C(=O)N[C@@H](CCC(N)=O)C(=O)N[C@H](C(N)=O)C(C)C)[C@@H](C)CC)[C@@H](C)CC)[C@@H](C)CC)C(C)C)C(C)C [SEQ ID No. 2, reference compound] (Ac-IVLSLD[dV]PIKLK([γGlu-C16 diacid])QILLKQERQKKQREQAEKNKQILEQV-NH2) |  |
|  | CC[C@H](C)[C@H](NC(C)=O)C(=O)N[C@H](C(=O)N[C@@H](CC(C)C)C(=O)N[C@@H](CO)C(=O)N[C@@H](CC(C)C)C(=O)N[C@@H](CC(=O)O)C(=O)N[C@@H](C(=O)N1CCC[C@H]1C(=O)N[C@H](C(=O)N[C@@H](CCCCN)C(=O)N[C@@H](CC(C)C)C(=O)N[C@@H](CCCCNC(=O)CC[C@H](NC(=O)CCCCCCCCCCCCCCCCC(=O)O)C(=O)O)C(=O)N[C@@H](CCCCN)C(=O)N[C@H](C(=O)N[C@@H](CC(C)C)C(=O)N[C@@H](CC(C)C)C(=O)N[C@@H](CCC(=O)O)C(=O)N[C@@H](CCC(N)=O)C(=O)N[C@@H](CCC(=O)O)C(=O)N[C@@H](CCCCN)C(=O)N[C@@H](CCC(N)=O)C(=O)N[C@@H](CCCCN)C(=O)N[C@@H](CCCCN)C(=O)N[C@@H](CCC(N)=O)C(=O)N[C@@H](CCCNC(=N)N)C(=O)N[C@@H](CCC(=O)O)C(=O)N[C@@H](CCC(N)=O)C(=O)N[C@@H](C)C(=O)N[C@@H](CCC(=O)O)C(=O)N[C@H](C(=O)N[C@@H](CC(N)=O)C(=O)N[C@@H](CCC(=O)O)C(=O)N[C@@H](CCC(N)=O)C(=O)N[C@H](C(=O)N[C@@H](CC(C)C)C(=O)N[C@@H](C)C(=O)N[C@@H](CCC(N)=O)C(=O)N[C@H](C(N)=O)C(C)C)[C@@H](C)CC)[C@@H](C)O)[C@@H](C)CC)[C@@H](C)CC)C(C)C)C(C)C [SEQ ID No. 130, reference compound] (Ac-IVLSLD[dV]PIKLK([γGlu-C18 diacid])KILLEQEKQKKQREQAETNEQILAQV-NH2) | Emax (% I) (listed as 13): 24 % I |
|  | CC[C@H](C)[C@H](NC)C(=O)N[C@H](C(=O)N[C@@H](CC(C)C)C(=O)N[C@@H](CO)C(=O)N[C@@H](CC(C)C)C(=O)N[C@@H](CC(=O)O)C(=O)N[C@@H](C(=O)N1CCC[C@H]1C(=O)N[C@H](C(=O)N[C@@H](CCCCN)C(=O)N[C@@H](CC(C)C)C(=O)N[C@@H](CCCCNC(=O)CC[C@H](NC(=O)CCCCCCCCCCCCCCCCC(=O)O)C(=O)O)C(=O)N[C@@H](CCCCN)C(=O)N[C@H](C(=O)N[C@@H](CC(C)C)C(=O)N[C@@H](CC(C)C)C(=O)N[C@@H](CCC(=O)O)C(=O)N[C@@H](CCC(N)=O)C(=O)N[C@@H](CCC(=O)O)C(=O)N[C@@H](CCCCN)C(=O)N[C@@H](CCC(N)=O)C(=O)N[C@@H](CCCCN)C(=O)N[C@@H](CCCCN)C(=O)N[C@@H](CCC(N)=O)C(=O)N[C@@H](CCCNC(=N)N)C(=O)N[C@@H](CCC(=O)O)C(=O)N[C@@H](CCC(N)=O)C(=O)N[C@@H](C)C(=O)N[C@@H](CCC(=O)O)C(=O)N[C@H](C(=O)N[C@@H](CC(N)=O)C(=O)N[C@@H](CCC(=O)O)C(=O)N[C@@H](CCC(N)=O)C(=O)N[C@H](C(=O)N[C@@H](CC(C)C)C(=O)N[C@@H](C)C(=O)N[C@@H](CCC(N)=O)C(=O)N[C@H](C(N)=O)C(C)C)[C@@H](C)CC)[C@@H](C)O)[C@@H](C)CC)[C@@H](C)CC)C(C)C)C(C)C [SEQ ID No. 142, reference compound] (H-[NMeI]VLSLD[dV]PIKLK([γGlu-C18 diacid])KILLEQEKQKKQREQAETNEQILAQV-NH2) | Emax (% I) (listed as 14): 24 % I |
|  | CC[C@H](C)[C@H](N)C(=O)N[C@H](C(=O)N[C@@H](CC(C)C)C(=O)N[C@@H](CO)C(=O)N[C@@H](CC(C)C)C(=O)N[C@@H](CC(=O)O)C(=O)N[C@@H](C(=O)N1CCC[C@H]1C(=O)N[C@H](C(=O)N[C@@H](CCCCN)C(=O)N[C@@H](CC(C)C)C(=O)N[C@@H](CCCCNC(=O)COCCOCCNC(=O)COCCOCCNC(=O)CC[C@H](NC(=O)CCCCCCCCCCCCCCC(=O)O)C(=O)O)C(=O)N[C@@H](CCC(N)=O)C(=O)N[C@H](C(=O)N[C@@H](CC(C)C)C(=O)N[C@@H](CC(C)C)C(=O)N[C@@H](CCCCN)C(=O)N[C@@H](CCC(N)=O)C(=O)N[C@@H](CCC(=O)O)C(=O)N[C@@H](CCCNC(=N)N)C(=O)N[C@@H](CCC(N)=O)C(=O)N[C@@H](CCCCN)C(=O)N[C@@H](CCCCN)C(=O)N[C@@H](CCC(N)=O)C(=O)N[C@@H](CCCNC(=N)N)C(=O)N[C@@H](CCC(=O)O)C(=O)N[C@@H](CCC(N)=O)C(=O)N[C@@H](C)C(=O)N[C@@H](CCC(=O)O)C(=O)N[C@@H](CCCCN)C(=O)N[C@@H](CC(N)=O)C(=O)N[C@@H](CCCCN)C(=O)N[C@@H](CCC(N)=O)C(=O)N[C@H](C(=O)N[C@@H](CC(C)C)C(=O)N[C@@H](CCC(=O)O)C(=O)N[C@@H](CCC(N)=O)C(=O)N[C@H](C(N)=O)C(C)C)[C@@H](C)CC)[C@@H](C)CC)[C@@H](C)CC)C(C)C)C(C)C [SEQ ID No. 148, reference compound] (H-IVLSLD[dV]PIKLK([AEEA-AEEA-γGlu-C16 diacid])QILLKQERQKKQREQAEKNKQILEQV-NH2) | Emax (% I) (listed as 2): 63 % I |
| 6 % I | CC[C@H](C)[C@H](N)C(=O)N[C@H](C(=O)N[C@@H](CC(C)C)C(=O)N[C@@H](CO)C(=O)N[C@@H](CC(C)C)C(=O)N[C@@H](CC(=O)O)C(=O)N[C@H](C(=O)N1CCC[C@H]1C(=O)N[C@H](C(=O)N[C@@H](CCCCN)C(=O)N[C@@H](CC(C)C)C(=O)N[C@@H](CCCCNC(=O)COCCOCCNC(=O)COCCOCCNC(=O)CC[C@H](NC(=O)CC[C@H](NC(=O)CCCCCCCCCCCCCCCCC(=O)O)C(=O)O)C(=O)O)C(=O)N[C@@H](CCC(N)=O)C(=O)NC(C)(C)C(=O)N[C@@H](CC(C)C)C(=O)N[C@@H](CC(C)C)C(=O)N[C@@H](CCCCN)C(=O)N[C@@H](CCC(N)=O)C(=O)N[C@@H](CCC(=O)O)C(=O)N[C@@H](CCCNC(=N)N)C(=O)N[C@@H](CCC(N)=O)C(=O)N[C@@H](CCCCN)C(=O)N[C@@H](CCCCN)C(=O)N[C@@H](CCC(N)=O)C(=O)N[C@@H](CCCNC(=N)N)C(=O)N[C@@H](CCC(=O)O)C(=O)N[C@@H](CCC(N)=O)C(=O)N[C@@H](C)C(=O)N[C@@H](CCC(=O)O)C(=O)N[C@@H](CCCCN)C(=O)N[C@@H](CC(N)=O)C(=O)NC(C)(C)C(=O)N[C@@H](CCC(N)=O)C(=O)N[C@H](C(=O)N[C@@H](CC(C)C)C(=O)N[C@@H](CCC(=O)O)C(=O)N[C@@H](CCC(N)=O)C(=O)N[C@H](C(N)=O)C(C)C)[C@@H](C)CC)[C@@H](C)CC)C(C)C)C(C)C [compound 25] (H-IVLSLDVPIKLK([AEEA-AEEA-γGlu-γGlu-C18 diacid])Q[Aib]LLKQERQKKQREQAEKN[Aib]QILEQV-NH2) |  |
| 1 % I | CC[C@H](C)[C@H](NC(C)=O)C(=O)N[C@H](C(=O)N[C@@H](CC(C)C)C(=O)N[C@@H](CO)C(=O)N[C@@H](CC(C)C)C(=O)N[C@@H](CC(=O)O)C(=O)N[C@H](C(=O)N1CCC[C@H]1C(=O)N[C@H](C(=O)N[C@@H](CCCCN)C(=O)N[C@@H](CC(C)C)C(=O)N[C@@H](CCCCNC(=O)COCCOCCNC(=O)COCCOCCNC(=O)CC[C@H](NC(=O)CC[C@H](NC(=O)CCCCCCCCCCCCCCCCC(=O)O)C(=O)O)C(=O)O)C(=O)N[C@@H](CCC(N)=O)C(=O)NC(C)(C)C(=O)N[C@@H](CC(C)C)C(=O)N[C@@H](CC(C)C)C(=O)N[C@@H](CCCCN)C(=O)N[C@@H](CCC(N)=O)C(=O)N[C@@H](CCC(=O)O)C(=O)N[C@@H](CCCNC(=N)N)C(=O)N[C@@H](CCC(N)=O)C(=O)N[C@@H](CCCCN)C(=O)N[C@@H](CCCCN)C(=O)N[C@@H](CCC(N)=O)C(=O)N[C@@H](CCCNC(=N)N)C(=O)N[C@@H](CCC(=O)O)C(=O)N[C@@H](CCC(N)=O)C(=O)N[C@@H](C)C(=O)N[C@@H](CCC(=O)O)C(=O)N[C@@H](CCCCN)C(=O)N[C@@H](CC(N)=O)C(=O)NC(C)(C)C(=O)N[C@@H](CCC(N)=O)C(=O)N[C@H](C(=O)N[C@@H](CC(C)C)C(=O)N[C@@H](CCC(=O)O)C(=O)N[C@@H](CCC(N)=O)C(=O)N[C@H](C(N)=O)C(C)C)[C@@H](C)CC)[C@@H](C)CC)C(C)C)C(C)C [compound 26] (Ac-IVLSLDVPIKLK([AEEA-AEEA-γGlu-γGlu-C18 diacid])Q[Aib]LLKQERQKKQREQAEKN[Aib]QILEQV-NH2) |  |
